Experimental data: PMC8472287, “Betulinic Acid Decorated with Polar Groups and Blue Emitting BODIPY Dye: Synthesis, Cytotoxicity, Cell-Cycle Analysis and Anti-HIV Profiling” (Biomedicines, 2021)

What was measured:
[1] = tested on: U2OS-Nuc cell line; test: Live cell imaging, pilot experiment; assay type: cell-based, human; details: 10 µM, 1 h incubation
Method: (§1) U2OS cell line (ATCC, USA) was transduced with premade lentiviral particles (Vectalis-TaKaRa, Japan) with sequences that express fluorescent protein tag mCherry targeted to specific subcellular locations. All cell lines were prepared according to the vendor’s instructions. The U2OS-Nuc cell line was prepared by using rLV.EF1.mCherry-Nuc-9 (cat. n. 0023VCT), containing a NLS sequence that imports protein into the nucleus. The U2OS-ER cell line was transduced by rLV.EF1.mCherry-ER-9 (cat. n. 0025VCT), which contains a calreticulin signal sequence and a KDEL sequence that associates protein with the endoplasmic reticulum. The U2OS-GA cell line was transduced by rLV.EF1.mCherry-Golgi-9 (cat. n. 0022VCT), containing a human GT precursor, a protein localized in Golgi Apparatus. The U2OS-Mito cell line was prepared by using rLV.EF1.mCherry-Mito-9 (cat. n. 0024VCT), containing a mitochondrial targeting sequence.
(§2) U2OS cells with fluorescent fusion proteins (density 1.0 × 10^3 per well) were seeded into 384 CellCarrier plates (Perkin Elmer, Waltham, MA, USA) and pre-incubated for 24 h at 37 °C and 5% CO2. The attached cells were treated with tested compounds in concentration 10 µM for 1 h and subsequently rinsed with fresh media. The live-cell imaging was performed by Cell Voyager CV7000 (Yokogawa, Tokyo, Japan) spinning disc confocal microscopy system at 37 °C in a 5% CO2 atmosphere. Live cells were monitored by a 60 × water immersion objective. The fluorescent signal was excited by lasers (405 nm and 561 nm) and the emission was filtered by bandpass filters (BP 445/45 and BP 595/20). All images were post-processed, and Pearson’s and Mander’s coefficients were calculated using the JACoP plugin in Image-J software.

[2] = tested on: U2OS-ER, U2OS-Mito and U2OS-GA cell lines; test: Live cell colocalization experiments; assay type: cell-based, human; details: 10 µM, 1 h, Mander's coefficient
Method: as §1, §2

[3] = tested on: CCRF-CEM; test: MTS cytotoxicity assay, CCRF-CEM; assay type: cell-based; details: Homo sapiens, 72 h, 3-day incubation
Description: (§3) All cells (if not indicated otherwise) were purchased from the American Tissue Culture Collection (ATCC; Manassas, VA, USA). The highly chemosensitive CCRF-CEM line is derived from T lymphoblastic leukaemia, K562 represent cells of chronic myelogenous leukaemia. Colorectal adenocarcinoma HCT116 cell line and its p53 gene knockout counterpart (HCT116p53−/−, Horizon Discovery Ltd., Cambridge, UK) were used as models to assess the impact of p53 deficiency on cell line sensitivity. A549 cells are derived from lung adenocarcinoma and U2OS from human osteosarcoma. CEM-DNR and K562-Tax are well-characterized daunorubicin and paclitaxel-resistant sublines of CCRF-CEM and K562. The CEM-DNR resistant cells overexpress the P-glycoprotein and LRP protein, the K562-Tax overexpress P-glycoprotein but is losing the expression of LRP, which is present at parental K562 cell line. P-glycoprotein belongs to the ABC transporters’ family and is involved in the primary and acquired multidrug resistance phenomenon by the efflux of toxic compounds, LRP protein is involved in the lysosomal degradation. MRC-5 and BJ cell lines were used as a non-tumour control and represent human fibroblasts. The cells were maintained in Nunc/Corning 80 cm^2 plastic tissue culture flasks and cultured in cell culture medium according to ATCC or Horizon recommendations (DMEM/RPMI 1640 with 5 g/L-glucose, 2 mM glutamine, 100 U/mL penicillin, […] streptomycin, 10% fetal calf serum, and NaHCO3).
(§4) To perform the cytotoxicity MTS assay, cell suspensions were prepared and diluted according to the cell type and the expected target cell density (25,000–35,000 cells/mL) based on cell growth characteristics. Cells were added by an automatic pipettor (30 μL) into 384 well microtiter plates. All tested compounds were dissolved in 100% DMSO and four-fold dilutions of the intended test concentration were added in 0.15 μL aliquots at time zero to the microtiter plate wells by the echo-acoustic liquid handler Echo550 (Labcyte, San Jose, CA, USA). The experiments were performed in technical duplicates and at least three biological replicates. The cells were incubated with the tested compounds for 72 h at 37 °C, in a 5% CO2 atmosphere at 99% humidity. At the end of the incubation period, the cells were assayed by using the MTS test. Aliquots (5 µL) of the MTS stock solution were pipetted into each well and incubated for an additional 1–4 h. After this incubation period, the optical density (OD) was measured at 490 nm with an Envision microplate reader (Perkin Elmer, Waltham, Massachusetts, USA). Tumour cell survival (TCS) was calculated using the following equation: TCS = (ODdrug-exposed well/mean ODcontrol wells) × 100%.

[4] = tested on: CEM-DNR; test: MTS cytotoxicity assay, CEM-DNR; assay type: cell-based; details: Homo sapiens, 72 h, CEM-DNR (daunorubicin resistant), 3-day incubation
Description: as §3, §4

[5] = tested on: K562; test: MTS cytotoxicity assay, K562; assay type: cell-based; details: Homo sapiens, 72 h, 3-day incubation
Description: as §3, §4

[6] = tested on: K562-Tax; test: MTS cytotoxicity assay, K562-Tax; assay type: cell-based; details: Homo sapiens, 72 h, K562-Tax (paclitaxel-resistant), 3-day incubation
Description: as §3, §4

[7] = tested on: A549; test: MTS cytotoxicity assay, A549; assay type: cell-based; details: Homo sapiens, 72 h, 3-day incubation
Description: as §3, §4

[8] = tested on: HCT116; test: MTS cytotoxicity assay, HCT116; assay type: cell-based; details: Homo sapiens, HCT-116, 72 h, 3-day incubation
Description: as §3, §4

[9] = tested on: HCT116p53−/−; test: MTS cytotoxicity assay, HCT116p53−/−; assay type: cell-based; details: Homo sapiens, HCT116-p53-null, 72 h, HCT116p53−/− (null p53 gene), 3-day incubation
Description: as §3, §4

[10] = tested on: U2OS; test: MTS cytotoxicity assay, U2OS; assay type: cell-based; details: Homo sapiens, 72 h, 3-day incubation
Description: as §3, §4

[11] = tested on: MRC-5; test: MTS cytotoxicity assay, MRC-5; assay type: cell-based; details: Homo sapiens, MRC5, 72 h, MRC-5 normal fibroblasts, 3-day incubation
Description: as §3, §4

[12] = tested on: BJ; test: MTS cytotoxicity assay, BJ; assay type: cell-based; details: Homo sapiens, 72 h, BJ normal fibroblasts, 3-day incubation
Description: as §3, §4

[13] = tested on: CCRF-CEM lymphoblasts; test: Cell cycle and apoptosis analysis (flow cytometry, propidium iodide); assay type: cell-based, human; details: 5 × IC50
Method: (§5) CCRF-CEM cells were seeded in 6-well plates at a density of 1 × 10^6/well. […] Cells were then harvested, washed with cold 1 × PBS and fixed in ice-cold 70% ethanol. Fixed cells were incubated overnight at −20 °C, washed in hypotonic citrate buffer, treated with RNase (50 μg mL^−1) and incubated with propidium iodide for 15 min. DNA content was analysed using Becton Dickinson flow cytometer and cell cycle data were analysed in the program ModFitLT (Verity, Carrollton, TX, USA). Apoptosis was measured in a logarithmic model expressing the percentage of the particles with propidium content lower than cells in G0/G1 phase (<G1) of the cell cycle. The mitotic marker pH3Ser10 antibody (Sigma) and secondary anti-mouse-FITC antibody (Sigma) were used for labelling and subsequent flow cytometry analysis of ethanol-fixed CCRF-CEM cells.

[14] = tested on: CCRF-CEM lymphoblasts; test: Mitotic marker pH3Ser10 flow cytometry; assay type: cell-based, human; details: 5 × IC50
Method: as §5

[15] = tested on: CCRF-CEM lymphoblasts; test: BrDU incorporation analysis (DNA synthesis); assay type: cell-based, human; details: 24 h incubation
Method: Cells were cultivated as in the method above and pulse-labelled with 10 μM 5-bromo-2-deoxyuridine (BrDU) for 30 min before collection to the test tubes. The cells were washed with cold 1 × PBS and fixed in ice-cold 70% ethanol. Before analysis, they were washed with 1 × PBS and incubated in 2M HCl for 30 min at room temperature. Following neutralization with 0.1M Na2B4O7 (borax), the cells were washed with 0.5% Tween-20 and 1% BSA in 1 × PBS. The cell pellets were stained using a primary anti-BrdU antibody (Exbio, Vestec, Czech Republic) for 30 min at room temperature and a secondary anti-mouse-FITC antibody (Sigma). The samples were then incubated with propidium iodide (0.1 mg mL^−1), treated with RNase A (0.5 mg mL^−1) for 1 h at room temperature in the dark and analysed as above.

[16] = tested on: CCRF-CEM lymphoblasts; test: BrU incorporation analysis (RNA synthesis); assay type: cell-based, human; details: 24 h, 5 × IC50 (high concentration)
[17] = tested on: VSV-G pseudotyped HIV-1 particles; test: microbe, parasite or virus in culture; assay type: cell-based; details: Human immunodeficiency virus 1, HEK293, 48 h, read-out: IC50i (50% infection inhibition)
[18] = tested on: CA-SP1 processing of HIV-1 Gag polyprotein; test: Western blot of released virions with anti-HIV-1 CA antibody; assay type: cell-based
[19] = tested on: entire cell line panel
[20] = in vitro; details: human

Structure (SMILES) | detection in living cells [1] | colocalization with cellular structures [2] | IC50 [3] [µM] | IC50 [4] [µM] | IC50 [5] [µM] | IC50 [6] [µM] | IC50 [7] [µM] | IC50 [8] [µM] | IC50 [9] [µM] | IC50 [10] [µM] | IC50 [11] [µM] | IC50 [12] [µM] | increase of the percentage of cells in the S-phase compared to untreated control [13] | rate of cell division by mitotic marker pH3Ser10 (in words) [14] | fraction of proliferating BrDU positive CCRF-CEM cells (in words) [15] | RNA synthesis by BrU (in words) [16] | IC50 [17] [µM] | CA forms identified in released viruses (CA-SP1 processing) [18] | cytotoxic effect in the cell line panel (in words) [19] | IC50 [20] [µM]
CSC1=C2C=CC=[N+]2[B-](F)(F)n2cccc21 [BODIPY-SMe, 8-thiomethyl BODIPY, reference compound] | penetrate cell compartments | perfect colocalization in all studied cell lines | – | – | – | – | – | – | – | – | – | – | – | – | – | – | – | – | – | –
C=C(C)[C@@H]1CC[C@]2(C(=O)NCCCN=[N+]=[N-])CC[C@]3(C)[C@H](CC[C@@H]4[C@@]5(C)CC[C@H](OC(=O)CC(C)(C)C(=O)O)C(C)(C)[C@@H]5CC[C@]43C)[C@@H]12 [Compound 2, 4-{[(3β)-28-[(3-Azidopropyl)amino]-28-oxolup-20(29)-ene-3-yl]oxy}-2,2-dimethyl-4-oxo-butanoic acid] | – | – | 8.14 | 10.2 | 26 | 15.9 | 22.9 | 19.4 | 29.2 | 22.2 | 24.2 | 25.3 | about 50% | low rate of cell division | increased the percentage of cells incorporating BrDU | stalled RNA synthesis | 11.7 | not only fully processed p24 CA, but also p25 CA-SP1 protein | medium cytotoxicity | 36.4
